In the NIST ThermoML archive (doi:10.1021/je200111a):
Numbers after ± are expanded uncertainties.

Tests used:
[1] = Liquid; for mass density: 298.15 K, 101.33 kPa; for vapor or sublimation pressure: Ebulliometric method (Recirculating still)
[2] = refractive index (Na D-line) (dimensionless); settings: 298.15 K; 101.33 kPa; Liquid; Standard Abbe refractometry

mass density [1] | vapor or sublimation pressure ([1]; 353.75 K) | vapor or sublimation pressure ([1]; 403.75 K) | refractive index [2] | vapor or sublimation pressure ([1]; 366.55 K) | vapor or sublimation pressure ([1]; 366.65 K) | vapor or sublimation pressure ([1]; 427.62 K) | vapor or sublimation pressure ([1]; 427.65 K) | vapor or sublimation pressure ([1]; 358.35 K) | vapor or sublimation pressure ([1]; 411.05 K) | SMILES
807.6 ± 0.4 kg/m3 | 13 ± 0.16 kPa | 101.3 ± 1.7 kPa | 1.4051 ± 0.0007 | – | – | – | – | – | – | CC(C)CCO [3-methylbutan-1-ol]
1028.6 ± 0.2 kg/m3 | – | – | 1.41057 ± 0.00072 | 13 ± 0.2 kPa | 13 ± 0.2 kPa | 101.3 ± 2 kPa | 101.3 ± 2 kPa | – | – | CCOC(=O)[C@H](C)O [(S)-(-)-ethyl lactate]
811.2 ± 0.4 kg/m3 | – | – | 1.4077 ± 0.0007 | – | – | – | – | 13 ± 0.17 kPa | 101.3 ± 1.8 kPa | CCCCCO [pentan-1-ol]
